Values of other authors in publication PMC11938273 (Journal of Chemical Information and Modeling, 2025).
*1 amine or outer side, *2 acyl side, *3 side chain or, on linkers, in order; H or OH if unused. Where a SMILES comes first, the peptide text is derived from it. Bridges are numbered along the chain shown (N, C = ends). Roman numbers before positions name the chains, in order. [ ]: non-standard residue; d: D form. Actinocin(9to1) = Cc1c2oc3c(C)ccc(C(=O)[*:1])c3nc-2c(C(=O)[*:2])c(N)c1=O; NMeV = CN[C@H](C(=O)O)C(C)C; Sar = CNCC(=O)O

Details: in vivo; cited from earlier work

Structure (SMILES) | CNS status
CNc1ccc(-c2nc3ccc(O)cc3s2)cc1 [6-OH-BTA-1 (PiB), 2-(4-(Methylamino)phenyl)benzo[d]thiazol-6-ol] | Positive
CNc1ccc(-c2nc3ccc(O)cc3s2)cc1 [6-meO-BTA-0, 2-(4-(Methylamino)phenyl)benzo[d]thiazol-6-ol] | Negative
Cc1c2oc3c(C)ccc(C(=O)N[C@@H]4C(=O)N[C@H](C(C)C)C(=O)N5CCC[C@H]5C(=O)N(C)CC(=O)N(C)[C@@H](C(C)C)C(=O)O[C@@H]4C)c3nc-2c(C(=O)N[C@@H]2C(=O)N[C@H](C(C)C)C(=O)N3CCC[C@H]3C(=O)N(C)CC(=O)N(C)[C@@H](C(C)C)C(=O)O[C@@H]2C)c(N)c1=O [Actinomycin D] (I: T[dV]P[Sar][NMeV] / II: T[dV]P[Sar][NMeV]; ester I:1-I:C, II:1-II:C; linker I:N-II:N via Actinocin(9to1)) | Efflux transporter substrate
O=C(c1ccc(F)cc1)C1CCN(CCn2c(=S)[nH]c3ccccc3c2=O)CC1 [Altanserin, 3-[2-[4-(4-fluorobenzoyl)piperidin-1-yl]ethyl]-2-sulfanylidene-1H-quinazolin-4-one] | Positive
CN(C(=O)C(c1ccccc1)c1ccccc1)[C@H](CN1CC[C@H](O)C1)c1ccccc1 [Asimadoline, N-{(1S)-2-[(3S)-3-Hydroxy-1-pyrrolidinyl]-1-phenylethyl}-Nmethyl-2,2-diphenylacetamide] | Efflux transporter substrate
CCOC(=O)c1ncn2c1CN(C)C(=O)c1cc(N=[N+]=[N-])ccc1-2 [Azidomazenil, Ethyl-8-azido-5-methyl-6-oxo-4H-imidazo[1,5-a][1,4]benzodiazepine-3-carboxylate] | Positive
CCCC(=O)OC1CCN(C)CC1 [BMP, 1-methylpiperidin-4-yl butyrate] | Positive
C(=N\NC1=NCCN1)/c1c2ccccc2c(/C=N/NC2=NCCN2)c2ccccc12 [Bisantrene, N-[(E)-[10-[(E)-(4,5-dihydro-1H-imidazol-2-ylhydrazinylidene)methyl]anthracen-9-yl]methylideneamino]-4,5-dihydro-1H-imidazol-2-amine] | Efflux transporter substrate
COC(=O)[C@H]1[C@@H](c2ccc(I)cc2)C[C@@H]2CC[C@H]1N2CCF [CIT-FE, (1R,2S,3S,5S)-methyl 8-(2-fluoroethyl)-3-(4-iodophenyl)-8-azabicyclo[3.2.1]octane-2-carboxylate] | Positive
CCOc1nc2cccc(C(=O)O)c2n1Cc1ccc(-c2ccccc2-c2nnn[nH]2)cc1 [Candesartan, 1-((2'-(2H-tetrazol-5-yl)-[1,1'-biphenyl]-4-yl)methyl)-2-ethoxy-1H-benzo[d]imidazole-7-carboxylic acid] | Negative
CC(C)NCC(O)COc1cccc2[nH]c3ccccc3c12 (stereo not drawn) [Carazolol, 1-((9H-carbazol-4-yl)oxy)-3-(isopropylamino)propan-2-ol] | Positive
C[C@@](Cc1ccc(O)c(O)c1)(NN)C(=O)O [Carbidopa, (2S)-3-(3,4-Dihydroxyphenyl)-2-hydrazino-2-methylpropanoic acid] | Negative
Cc1ccc(-c2cc(C(F)(F)F)nn2-c2ccc(S(N)(=O)=O)cc2)cc1 [Celecoxib, 4-[5-(4-Methylphenyl)-3-(trifluoromethyl)-1H-pyrazol-1-yl]benzenesulfonamide] | Negative
CN/C(=N/CCSCc1nc[nH]c1C)NC#N [Cimetidine, 1-Cyano-2-methyl-3-(2-{[(4-methyl-1H-imidazol5-yl)methyl]sulfanyl}ethyl)guanidine] | Efflux transporter substrate
COc1ccc(OC)c(CN(C(C)=O)c2cc(F)ccc2Oc2ccccc2)c1 [DAA1106, N-(2,5-dimethoxybenzyl)-N-(5-fluoro-2-phenoxyphenyl)acetamide] | Positive
CN(C)Cc1ccccc1Sc1ccc(C#N)cc1N [DASB, 3-Amino-4-((2-((dimethylamino)methyl)phenyl)thio)benzonitrile] | Positive
COc1cccc2c1C(=O)c1c(O)c3c(c(O)c1C2=O)C[C@@](O)(C(C)=O)C[C@@H]3O[C@H]1C[C@H](N)[C@H](O)[C@H](C)O1 [Daunorubicin, (1S,3S)-3-Acetyl-3,5,12-trihydroxy-10-methoxy-6,11-dioxo-1,2,3,4,6,11-hexahydro-1-tetracenyl 3-amino-2,3,6-trideoxy-α-L-lyxo-hexopyranoside] | Efflux transporter substrate
COc1cccc2c1C(=O)c1c(O)c3c(c(O)c1C2=O)C[C@@](O)(C(=O)CO)C[C@@H]3O[C@H]1C[C@H](N)[C@H](O)[C@H](C)O1 [Doxorubicin, (1S,3S)-3-Glycoloyl-3,5,12-trihydroxy-10-methoxy-6,11-dioxo-1,2,3,4,6,11-hexahydro-1-tetracenyl 3-amino-2,3,6-trideoxy-α-L-lyxo-hexopyranoside] | Efflux transporter substrate

Structure (SMILES) | CNS status
CCN(CC)C(=O)/C(C#N)=C/c1cc(O)c(O)c([N+](=O)[O-])c1 [Entacapone, (2E)-2-Cyano-3-(3,4-dihydroxy-5-nitrophenyl)-N,N-diethylacrylamide] | Negative
CCN1CCC[C@H]1CNC(=O)c1cc(I)cc(OC)c1OC [Epidepride, (S)-N-((1-ethylpyrrolidin-2-yl)methyl)-5-iodo-2,3-dimethoxybenzamide] | Positive
COc1cccc2c1C(=O)c1c(O)c3c(c(O)c1C2=O)C[C@@](O)(C(=O)CO)C[C@@H]3O[C@H]1C[C@H](N)[C@@H](O)[C@H](C)O1 [Epirubicin, (1S,3S)-3-Glycoloyl-3,5,12-trihydroxy-10-methoxy-6,11-dioxo-1,2,3,4,6,11-hexahydro-1-tetracenyl 3-amino-2,3,6-trideoxy-α-L-arabino-hexopyranoside] | Efflux transporter substrate
C#Cc1cccc(Nc2ncnc3cc(OCCOC)c(OCCOC)cc23)c1 [Erlotinib, N-(3-Ethynylphenyl)-6,7-bis(2-methoxyethoxy)-4-quinazolinamine] | Efflux transporter substrate
CCOC(=O)c1cncn1[C@H](C)c1ccccc1 [Etomidate, (R)-ethyl 1-(1-phenylethyl)-1H-imidazole-5-carboxylate] | Positive
COc1cc([C@@H]2c3cc4c(cc3[C@@H](O[C@@H]3O[C@@H]5CO[C@@H](C)O[C@H]5[C@H](O)[C@H]3O)[C@H]3COC(=O)[C@H]23)OCO4)cc(OC)c1O [Etoposide, (5S,5aR,8aR,9R)-9-(4-Hydroxy-3,5-dimethoxyphenyl)-8-oxo-5,5a,6,8,8a,9-hexahydrofuro[3′,4′:6,7]naphtho[2,3-d][1,3]dioxol-5-yl 4,6-O-[(1R)-ethylidene]-β-D-glucopyranoside] | Efflux transporter substrate
Cc1ccc([C@H]2C[C@@H]3CC[C@H]([C@H]2C(=O)OCCF)N3C/C=C/I)cc1 [FE-PE2i, 2-fluoroethyl (1R,2S,3S,5S)-8-((E)-3-iodoallyl)-3-(p-tolyl)-8-azabicyclo[3.2.1]octane-2-carboxylate] | Positive
CCSC(=O)c1c(CC)nc(-c2ccccc2)c(C(=O)OCC[18F])c1CC [FE@SUPPY, 5-(2-[18F]fluoroethyl)2,4-diethyl-3-(ethylsulfanylcarbonyl)-6-phenylpyridine-5-carboxylate] | Negative
C=CCN1CCC[C@H]1CNC(=O)c1cc(CCCF)cc(OC)c1OC [Fallypride, (S)-N-((1-allylpyrrolidin-2-yl)methyl)-1-(5-(3-fluoropropyl)-2,3-dimethoxyphenyl)ethenamine] | Positive
CN1Cc2c(C(=O)OCCF)ncn2-c2ccc(F)cc2C1=O [Fluoroethylflumazenil (FFMZ), 2-Fluoroethyl 8-fluoro-5-methyl-6-oxo-5,6-dihydro-4H-benzo [f]imidazo[1,5-a] [1, 4]diazepine-3-carboxylate] | Positive
O=[N+]([O-])c1nccn1CC(O)CF (stereo not drawn) [Fluoromisonidazole (FMISO), 1-Fluoro-3-(2-nitro-1H-imidazol-1-yl)propan-2-ol] | Positive
CNc1ccc(-c2nc3ccc(O)cc3s2)cc1F [Flutemetamol, 2-(3-fluoro-4-(methylamino)phenyl)benzo[d]thiazol-6-ol] | Positive
C[C@]12CC[C@@H]3c4ccc(O)cc4C[C@@H](CCCCCCCCC[S+]([O-])CCCC(F)(F)C(F)(F)F)[C@H]3[C@@H]1CC[C@@H]2O (stereo partly drawn) [Fulvestrant, (7α,17β)-7-{9-[(4,4,5,5,5-Pentafluoropentyl)sulfinyl]nonyl}estra-1(10),2,4-triene-3,17-diol] | Negative
COC(=O)N1CCN(C(=O)Cc2ccc(Cl)c(Cl)c2)[C@H](CN2CCCC2)C1 [GR89696, (R)-methyl 4-(2-(3,4-dichlorophenyl)acetyl)-3-(pyrrolidin-1-ylmethyl)piperazine-1-carboxylate] | Positive
CCC1=C(C)CN(C(=O)NCCc2ccc(S(=O)(=O)NC(=O)N[C@H]3CC[C@H](C)CC3)cc2)C1=O [Glimepiride, 3-Ethyl-4-methyl-N-[2-(4-{[(trans-4-methylcyclohexyl)carbamoyl]sulfamoyl}phenyl)ethyl]-2-oxo-2,5-dihydro-1H-pyrrole-1-carboxamide] | Negative
CCOc1ccc(-c2nc3cc(-c4nc5cc(N6CCN(C)CC6)ccc5[nH]4)ccc3[nH]2)cc1 [Hoechst 33342, 2′-(4-Ethoxyphenyl)-5-(4-methyl-1-piperazinyl)-1H,1′H-2,5′-bibenzimidazole] | Efflux transporter substrate
COC(=O)[C@H]1[C@@H](c2ccc(I)cc2)C[C@@H]2CC[C@H]1N2C/C=C/I [IPCIT, (1R,2S,3S,5S)-methyl 8-((E)-3-iodoallyl)-3-(4-iodophenyl)-8-azabicyclo[3.2.1]octane-2-carboxylate] | Positive
CCC(C)n1ncn(-c2ccc(N3CCN(c4ccc(OC[C@H]5CO[C@](Cn6cncn6)(c6ccc(Cl)cc6Cl)O5)cc4)CC3)cc2)c1=O (stereo partly drawn) [Itraconazole, 2-sec-Butyl-4-{4-[4-(4-{[(2R,4S)-2-(2,4-dichlorophenyl)-2-(1H-1,2,4-triazol-1-ylmethyl)-1,3-dioxolan-4-yl]methoxy}phenyl)-1-piperazinyl]phenyl}-2,4-dihydro-3H-1,2,4-triazol-3-one] | Negative
